Where two headings read alike, the source gives them in different places.
Experiments:
PRMT3 = PRMT3 (Homo sapiens, UniProt O60678); assay: Radioisotope-based filter-binding (HotSpot) assay, PRMT3
Protocol: (§2) Then, ^3H-SAM (final concentration 1 μM) was delivered into the reaction mixture to initiate the reaction. After incubation for 60 min at 30 °C, the reaction mixture was delivered to filter paper for detection (as assessed by scintillation). Data were analyzed using Excel and GraphPad Prism 6.0 software (GraphPad Software Inc., San Diego, CA) for IC50 curve fits using sigmoidal dose vs response-variable slope (four parameters) equations.

PRMT5/MEP50 complex = PRMT5/MEP50 complex (Homo sapiens, UniProt O14744); assay: Radioisotope-based filter-binding (HotSpot) assay, PRMT5
Protocol: as §2

PRMT7 = target: T1, PRMT7 (Homo sapiens, UniProt Q9NVM4); assay: Radioisotope-based filter-binding (HotSpot) assay, PRMT7
T1 sequence (Q9NVM4 2-692): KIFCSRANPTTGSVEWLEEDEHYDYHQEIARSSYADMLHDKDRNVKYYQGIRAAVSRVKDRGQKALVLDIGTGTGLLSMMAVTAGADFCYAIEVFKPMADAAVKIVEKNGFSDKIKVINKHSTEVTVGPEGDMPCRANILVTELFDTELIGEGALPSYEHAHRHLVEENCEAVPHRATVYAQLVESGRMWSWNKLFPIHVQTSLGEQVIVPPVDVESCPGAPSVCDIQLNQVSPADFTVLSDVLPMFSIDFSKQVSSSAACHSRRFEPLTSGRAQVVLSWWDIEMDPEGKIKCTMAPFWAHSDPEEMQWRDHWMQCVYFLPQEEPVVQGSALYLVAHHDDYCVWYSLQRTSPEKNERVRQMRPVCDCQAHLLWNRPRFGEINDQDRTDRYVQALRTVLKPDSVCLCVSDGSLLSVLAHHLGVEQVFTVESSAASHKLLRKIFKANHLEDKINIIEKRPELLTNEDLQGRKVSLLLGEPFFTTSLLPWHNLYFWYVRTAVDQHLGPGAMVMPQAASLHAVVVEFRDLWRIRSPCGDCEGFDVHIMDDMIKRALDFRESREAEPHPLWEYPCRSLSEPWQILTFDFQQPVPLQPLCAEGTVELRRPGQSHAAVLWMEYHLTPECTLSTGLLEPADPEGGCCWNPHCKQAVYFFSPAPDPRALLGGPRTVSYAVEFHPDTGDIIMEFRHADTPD
Protocol: as §2

PRMT6 = PRMT6 (Homo sapiens, UniProt Q96LA8); assay: Radioisotope-based filter-binding (HotSpot) assay, PRMT6
Protocol: as §2

ΔN(1–60)-PRMT8 = ΔN(1–60)-PRMT8 (Homo sapiens, UniProt Q9NR22); assay: Radioisotope-based filter-binding (HotSpot) assay, PRMT8
Protocol: as §2

[1] = target: T2, human PRMT4 (full length) (Homo sapiens, UniProt Q86X55); assay: SPR binding to immobilized PRMT4; details: for koff / kon: immobilized PRMT4; for kon: read-out: kon; for τR: in vitro residence time, τ = 1/koff
T2 construct: Full-length recombinant PRMT4 (Active motif, # 81107); purchased Active motif # 81107
T2 sequence (Q86X55 1-608): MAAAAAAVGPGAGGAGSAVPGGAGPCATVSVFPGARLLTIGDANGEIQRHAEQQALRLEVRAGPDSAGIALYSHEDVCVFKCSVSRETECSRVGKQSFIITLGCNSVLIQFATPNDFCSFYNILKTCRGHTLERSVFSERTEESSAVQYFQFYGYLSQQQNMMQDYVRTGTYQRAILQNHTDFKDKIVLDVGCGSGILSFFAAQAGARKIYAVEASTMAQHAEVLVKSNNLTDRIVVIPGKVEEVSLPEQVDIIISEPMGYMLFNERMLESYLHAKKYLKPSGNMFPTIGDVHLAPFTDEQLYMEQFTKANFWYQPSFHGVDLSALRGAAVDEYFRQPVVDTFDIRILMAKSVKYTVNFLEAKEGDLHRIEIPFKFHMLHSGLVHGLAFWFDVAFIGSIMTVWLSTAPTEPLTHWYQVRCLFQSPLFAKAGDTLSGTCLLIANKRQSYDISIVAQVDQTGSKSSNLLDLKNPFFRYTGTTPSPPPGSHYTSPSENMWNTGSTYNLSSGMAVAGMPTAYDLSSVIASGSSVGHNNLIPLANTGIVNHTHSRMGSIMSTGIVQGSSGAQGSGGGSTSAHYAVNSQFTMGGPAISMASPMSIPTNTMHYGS
Protocol: To this aim, human PRMT4 (full length) was covalently immobilized on a sensor chip surface using an amine-coupling approach, and the three compounds were injected at different concentrations over the protein surface. To reduce false positives from detergent-sensitive, nonspecific aggregation-based binding, detergents (0.05% Tween-20) were added to the running buffer in all experiments.
SPR experiments were performed on a Biacore T200 biosensor (Cytiva). PBS buffer (phosphate-buffered saline, pH 7.4) supplemented with 0.05% Tween-20 was used as the running buffer. […] One flow cell was left empty for background subtractions. […] Each compound was tested in […], prepared starting from 640 to 10 nM. Binding experiments were performed at 25 °C by using a flow rate of 30 μL/min, with 90 s monitoring of association and 90 s monitoring of dissociation. Regeneration of the surfaces was performed, when necessary, by a 10 s injection of 5 mM NaOH. […] The corrected sensorgrams for each compound were fitted simultaneously using a 1:1 Langmuir model to obtain equilibrium dissociation constants (KD) and kinetic dissociation (koff) and association (kon) constants.

PRMT4 = target: T3, PRMT4 (Homo sapiens, UniProt Q86X55); assay: Radioisotope-based filter-binding (HotSpot) assay, PRMT4
T3 sequence (Q86X55 2-608): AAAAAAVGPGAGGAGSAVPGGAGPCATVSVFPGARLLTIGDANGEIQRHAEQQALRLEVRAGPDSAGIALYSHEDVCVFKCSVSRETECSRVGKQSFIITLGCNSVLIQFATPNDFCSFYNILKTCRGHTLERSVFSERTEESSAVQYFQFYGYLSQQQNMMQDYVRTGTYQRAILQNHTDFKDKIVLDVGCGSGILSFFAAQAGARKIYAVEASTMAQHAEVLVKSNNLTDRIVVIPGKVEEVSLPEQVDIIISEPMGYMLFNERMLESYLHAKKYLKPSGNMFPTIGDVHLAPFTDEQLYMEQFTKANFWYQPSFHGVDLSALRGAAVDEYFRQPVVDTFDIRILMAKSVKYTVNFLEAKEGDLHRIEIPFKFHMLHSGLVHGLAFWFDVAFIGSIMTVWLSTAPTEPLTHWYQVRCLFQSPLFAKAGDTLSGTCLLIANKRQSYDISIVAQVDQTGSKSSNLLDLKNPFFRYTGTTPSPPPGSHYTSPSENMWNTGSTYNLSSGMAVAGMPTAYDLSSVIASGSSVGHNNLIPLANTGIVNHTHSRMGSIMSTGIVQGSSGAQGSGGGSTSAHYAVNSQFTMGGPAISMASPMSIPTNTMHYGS
Protocol: as §2

ASH1L = target: T4, ASH1L (Homo sapiens, UniProt Q9NR48); assay: HotSpot KMT activity assay, ASH1L; type: biochemical
T4 construct: ASH1L (residues 2046–2330, with an N-terminal His-tag); His (N); purchased Reaction Biology Corporation
Protocol: (§1) Then, ^3H-SAM (final concentration 1 μM) was delivered into the reaction mixture to initiate the reaction. After incubation for 60 min at 30 °C, the reaction mixture was delivered to filter-paper for detection (as assessed by scintillation). […] No inhibitor control (DMSO) was considered as 100% enzyme activity. Data were analyzed using Excel and GraphPad Prism 6.0 software (GraphPad Software Inc., San Diego, CA). Values obtained for each compound are mean ± SD determined for two separate experiments.

[2] = Parallel artificial membrane permeability assay (PAMPA); type: in vitro ADME; details: phosphate buffer pH 7.4, donor 0.2 mM, 24 h at room temperature
Protocol: A donor solution (0.2 mM) was prepared by diluting 20 mM dimethyl sulfoxide (DMSO) compound stock solution using phosphate buffer (pH 7.4, 0.01 M). Filters were coated with 5 μL of a 1% (w/v) dodecane solution of L-α-phosphatidylcholine. Donor solution (150 μL) was added to each well of the filter plate. To each well of the acceptor plate, 300 μL of solution (5% DMSO in phosphate buffer) was added. […] The sandwich was incubated for 24 h at room temperature under gentle shaking. After the incubation time, the sandwich plates were separated, and 250 μL of the acceptor plate was transferred to a UV quartz microtiter plate and measured by UV spectroscopy, using a Multiskan GO microplate spectrophotometer (Thermo Fisher Scientific) at 250–500 nm at a step of 5 nm. Reference solutions (250 μL) were prepared diluting the sample stock solutions to the same concentration as that with no membrane barrier.

SETD8 = target: T5, SETD8 (Homo sapiens, UniProt Q9NQR1); assay: HotSpot KMT activity assay, SETD8; type: biochemical; details: 10-dose mode, 3-fold dilution starting at 100 µM; read-out: ref. cmpd. IC50 (µM), SETD8
T5 construct: SETD8 (residues 190–352, C-terminus); N-terminal His-tag; His (N); purchased Reaction Biology Corporation
Protocol: as §1

[3] = read-out: IC50 (μM) PRMT3, radioisotope-based filter assay, 5 μM histone H4, 1 μM 3H-SAM
[4] = read-out: IC50 (μM) PRMT5, radioisotope-based filter assay, 5 μM histone H2A, 1 μM 3H-SAM
[5] = IC50 (μM) PRMT7, radioisotope-based filter assay, 5 μM GST-GAR, 1 μM 3H-SAM
[6] = read-out: IC50 (μM) PRMT6, radioisotope-based filter assay, 5 μM GST-GAR, 1 μM 3H-SAM
[7] = on increasing the linker between 4-hydroxy-2-naphthoate and guanidine (values equal the ratio to the IC50 of 12c)

Sequence of PRMT3 (O60678 2-531): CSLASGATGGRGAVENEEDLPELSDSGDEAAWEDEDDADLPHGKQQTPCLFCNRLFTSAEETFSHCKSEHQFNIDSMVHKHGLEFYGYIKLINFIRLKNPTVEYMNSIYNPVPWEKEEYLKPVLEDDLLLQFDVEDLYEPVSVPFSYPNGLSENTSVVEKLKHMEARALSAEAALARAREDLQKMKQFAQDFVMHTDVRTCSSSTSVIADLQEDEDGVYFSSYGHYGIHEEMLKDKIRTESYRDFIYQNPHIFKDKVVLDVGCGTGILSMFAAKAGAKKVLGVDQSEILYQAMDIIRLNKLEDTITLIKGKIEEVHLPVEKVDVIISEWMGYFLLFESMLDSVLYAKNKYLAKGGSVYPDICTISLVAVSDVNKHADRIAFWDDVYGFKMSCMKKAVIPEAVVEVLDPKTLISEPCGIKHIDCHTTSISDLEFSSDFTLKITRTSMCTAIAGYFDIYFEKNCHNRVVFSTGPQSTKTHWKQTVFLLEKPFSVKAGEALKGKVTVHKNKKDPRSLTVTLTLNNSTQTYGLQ
Sequence of PRMT5/MEP50 complex (O14744 2-637): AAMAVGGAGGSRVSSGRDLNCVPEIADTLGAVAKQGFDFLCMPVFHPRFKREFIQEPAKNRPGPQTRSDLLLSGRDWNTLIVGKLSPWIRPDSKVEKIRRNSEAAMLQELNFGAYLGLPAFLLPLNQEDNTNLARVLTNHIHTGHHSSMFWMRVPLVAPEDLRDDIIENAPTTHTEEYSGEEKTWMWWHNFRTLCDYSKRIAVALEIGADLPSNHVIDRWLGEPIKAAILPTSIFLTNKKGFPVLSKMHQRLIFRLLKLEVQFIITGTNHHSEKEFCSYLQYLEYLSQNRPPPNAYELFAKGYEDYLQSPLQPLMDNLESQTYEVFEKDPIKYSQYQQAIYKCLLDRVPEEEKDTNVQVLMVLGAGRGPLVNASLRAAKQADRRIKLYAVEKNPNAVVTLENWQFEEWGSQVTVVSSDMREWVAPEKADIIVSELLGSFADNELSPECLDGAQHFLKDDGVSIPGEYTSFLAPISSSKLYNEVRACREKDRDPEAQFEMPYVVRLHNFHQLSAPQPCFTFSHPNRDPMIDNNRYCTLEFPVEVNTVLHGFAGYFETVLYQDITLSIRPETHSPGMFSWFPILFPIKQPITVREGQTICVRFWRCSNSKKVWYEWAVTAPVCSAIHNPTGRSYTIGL
Sequence of PRMT5/MEP50 complex (Q9BQA1 2-342 partner limits assumed): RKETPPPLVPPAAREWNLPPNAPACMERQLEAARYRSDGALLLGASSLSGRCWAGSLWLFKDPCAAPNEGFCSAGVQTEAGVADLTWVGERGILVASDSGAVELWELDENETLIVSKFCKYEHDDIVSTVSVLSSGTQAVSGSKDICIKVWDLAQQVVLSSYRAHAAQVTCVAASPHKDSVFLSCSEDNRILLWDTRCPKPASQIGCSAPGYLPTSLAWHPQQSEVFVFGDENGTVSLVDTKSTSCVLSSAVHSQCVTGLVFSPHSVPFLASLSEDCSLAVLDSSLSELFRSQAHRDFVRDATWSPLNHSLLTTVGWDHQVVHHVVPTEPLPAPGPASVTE
Sequence of PRMT6 (Q96LA8 2-375): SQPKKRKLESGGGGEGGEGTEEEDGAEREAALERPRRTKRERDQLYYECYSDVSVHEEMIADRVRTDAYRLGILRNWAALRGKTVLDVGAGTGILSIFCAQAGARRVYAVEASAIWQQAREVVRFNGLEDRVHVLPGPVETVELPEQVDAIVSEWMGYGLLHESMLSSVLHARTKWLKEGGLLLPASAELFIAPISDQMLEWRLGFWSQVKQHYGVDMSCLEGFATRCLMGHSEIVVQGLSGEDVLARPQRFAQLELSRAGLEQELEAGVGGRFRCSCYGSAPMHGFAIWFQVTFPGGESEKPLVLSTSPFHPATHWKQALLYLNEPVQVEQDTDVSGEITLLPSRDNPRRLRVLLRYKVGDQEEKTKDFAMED
Sequence of ΔN(1–60)-PRMT8 (Q9NR22 61-394, stated change not applied): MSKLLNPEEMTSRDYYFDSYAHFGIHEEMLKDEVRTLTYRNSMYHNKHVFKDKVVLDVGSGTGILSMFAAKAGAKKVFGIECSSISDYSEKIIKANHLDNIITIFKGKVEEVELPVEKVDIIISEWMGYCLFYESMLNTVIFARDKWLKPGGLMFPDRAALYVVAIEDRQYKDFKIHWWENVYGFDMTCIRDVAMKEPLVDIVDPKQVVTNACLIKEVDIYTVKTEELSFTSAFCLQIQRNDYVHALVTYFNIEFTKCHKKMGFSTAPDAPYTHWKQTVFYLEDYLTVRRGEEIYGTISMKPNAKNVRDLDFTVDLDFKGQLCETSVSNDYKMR
T5 sequence (Q9NQR1 231-393): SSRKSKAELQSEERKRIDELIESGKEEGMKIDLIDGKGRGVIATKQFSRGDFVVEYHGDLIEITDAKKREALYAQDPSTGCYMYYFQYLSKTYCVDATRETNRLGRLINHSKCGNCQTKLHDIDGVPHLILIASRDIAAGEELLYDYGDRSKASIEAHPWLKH

## COC(=O)c1cc(O)c2cc(NC(=O)NCCCNC(=N)NC[C@H]3O[C@@H](n4cnc5c(N)ncnc54)[C@H](O)[C@@H]3O)ccc2c1 [12a, Methyl 6-(3-(3-(3-(((2R,3S,4R,5R)-5-(6-Amino-9H-purin-9-yl)-3,4-dihydroxytetrahydrofuran-2-yl)methyl)guanidino)propyl)ureido)-4-hydroxy-2-naphthoate]
PRMT3; [3]
  IC50: 57.2 µM
PRMT5/MEP50 complex; [4]
  IC50: 52.1 µM
PRMT7; [5]
  IC50: 0.3 µM
PRMT7; read-out: IC50 PRMT7 (Figure 5 heatmap), radioisotope-based filter assay
  IC50: 0.315 µM
PRMT6; [6]
  IC50: 72.8 µM
ΔN(1–60)-PRMT8; read-out: IC50 PRMT8 (Figure 5 heatmap)
  IC50: 8.29 µM

## COC(=O)c1cc(O)c2cc(NC(=O)NCCCCNC(=N)NC[C@H]3O[C@@H](n4cnc5c(N)ncnc54)[C@H](O)[C@@H]3O)ccc2c1 [12b, Methyl 6-(3-(4-(3-(((2R,3S,4R,5R)-5-(6-Amino-9H-purin-9-yl)-3,4-dihydroxytetrahydrofuran-2-yl)methyl)guanidino)butyl)ureido)-4-hydroxy-2-naphthoate]
PRMT3; [3]
  IC50: 43.4 µM
[1]; SPR
  koff: 0.015 s⁻¹
  kon: 6520 M⁻¹ s⁻¹
[1]; SPR, immobilized PRMT4, 25 °C, KD from ratio koff/kon
  Kd: 2.3 µM
[1]
  τR: 66.7 s
PRMT5/MEP50 complex; [4]
  IC50: 76.7 µM
PRMT7; read-out: IC50 (μM) PRMT7, radioisotope-based filter assay, 5 μM GST-GAR, 1 μM 3H-SAM
  IC50: 0.55 µM
PRMT4; read-out: IC50 (μM) PRMT4, radioisotope-based filter assay, 5 μM histone H3, 1 μM 3H-SAM
  IC50: 2.14 µM
PRMT4; read-out: IC50 PRMT4 (Figure 5 heatmap), radioisotope-based filter assay
  IC50: 2.14 µM
PRMT6; [6]
  IC50: > 100 µM
ΔN(1–60)-PRMT8; read-out: IC50 (μM) PRMT8, 5 μM histone H4, 1 μM 3H-SAM
  IC50: 18.7 µM

## COC(=O)c1cc(O)c2cc(NC(=O)NCCCCCCNC(=N)NC[C@H]3O[C@@H](n4cnc5c(N)ncnc54)[C@H](O)[C@@H]3O)ccc2c1 [12d, Methyl 6-(3-(6-(3-(((2R,3S,4R,5R)-5-(6-Amino-9H-purin-9-yl)-3,4-dihydroxytetrahydrofuran-2-yl)methyl)guanidino)hexyl)ureido)-4-hydroxy-2-naphthoate]
PRMT3; IC50 (μM) PRMT3, radioisotope-based filter assay, 5 μM histone H4, 1 μM 3H-SAM
  IC50: 12.2 µM
PRMT3; IC50 PRMT3 (Figure 5 heatmap), radioisotope-based filter assay
  IC50: 12.2 µM
[1]
  Kd: 2.8 µM
  τR: 1.31 s
[1]; SPR
  koff: 0.76 s⁻¹
  kon: 270000 M⁻¹ s⁻¹
PRMT5/MEP50 complex
  IC50: 2.6 µM
PRMT5/MEP50 complex; [7]
  gain in the inhibitory activity against PRMT5: 19.8 fold
PRMT7; [5]
  IC50: 0.41 µM
PRMT7; IC50 PRMT7 (Figure 5 heatmap), radioisotope-based filter assay
  IC50: 0.413 µM
PRMT4; IC50 (μM) PRMT4, radioisotope-based filter assay, 5 μM histone H3, 1 μM 3H-SAM
  IC50: 0.068 µM
PRMT4; IC50 PRMT4 (Figure 5 heatmap), radioisotope-based filter assay
  IC50: 0.061 µM
PRMT4; [7]
  gain in the inhibitory activity against PRMT4: 6.2 fold
PRMT6
  IC50: 47 µM

## CN1C(=O)[C@@]23C[C@]4([C@]56C[C@@]78SS[C@@](CO)(C(=O)N7[C@H]5Nc5ccccc56)N(C)C8=O)c5ccccc5N[C@@H]4N2C(=O)[C@]1(CO)SS3 [chaet, chaetocin, reference compound]
ASH1L
  IC50: 0.14 µM

## CC(C)NCC(O)COc1cccc2ccccc12 (stereo not shown) [propranolol, reference compound]
[2]
  Papp at 24 h, 0.2 mM: 6 ×10⁻⁶ cm/s

## Cc1ccc(NC2=CC(=O)c3sc(C)nc3C2=O)cc1 [ryuv, ryuvidine, reference compound]
SETD8
  IC50: 0.186 µM

From paper PMC9469100, “Turning Nonselective Inhibitors of Type I Protein Arginine Methyltransferases into Potent and Selective Inhibitors of Protein Arginine Methyltransferase 4 through a Deconstruction–Reconstruction and Fragment-Growing Approach” (Journal of Medicinal Chemistry, 2022)
